Test results published in PubChem BioAssay AID330 (DTP/NCI, 2004).
Where “and” joins values, the source holds several entries; their conditions need not be identical. Equal values may be shown once. Inconclusive results and toxic doses are left out. Rule for the calls: active = survival T/C of 150% or more; inactive = T/C below 125% in these data.

Tested on: P388 leukemia ip, CD2F1 mice, survival T/C
Test: NCI In Vivo Anticancer Drug Screen. Data for tumor model P388 Leukemia (intraperitoneal) in CD2F1 (CDF1) mice
Settings: endpoint: median survival time, higher = longer survival
In short: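 Mice carrying the transplanted tumor received test compound or vehicle. Survival was recorded in each group, and the value is the treated-group measurement divided by that of the vehicle-treated control group.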

[1] = dose: 50.0 mg/kg/injection, schedule: Q01DX005 (ip), vehicle: saline
[2] = dose: 100.0 mg/kg/injection, schedule: Q01DX005 (ip), vehicle: saline
[3] = dose: 200.0 mg/kg/injection, schedule: Q01DX005 (ip), vehicle: saline
[4] = dose: 25.0 mg/kg/injection, schedule: Q01DX009 (ip), vehicle: saline with Tween-80
[5] = dose: 50.0 mg/kg/injection, schedule: Q01DX009 (ip), vehicle: saline with Tween-80
[6] = dose: 100.0 mg/kg/injection, schedule: Q01DX009 (ip), vehicle: saline with Tween-80
[7] = dose: 200.0 mg/kg/injection, schedule: Q01DX009 (ip), vehicle: saline with Tween-80
[8] = dose: 50.0 mg/kg/injection, schedule: Q01DX005 (ip), vehicle: saline with Tween-80
[9] = dose: 100.0 mg/kg/injection, schedule: Q01DX005 (ip), vehicle: saline with Tween-80
[10] = dose: 200.0 mg/kg/injection, schedule: Q01DX005 (ip), vehicle: saline with Tween-80
[11] = dose: 50.0 mg/kg/injection, schedule: Q01DX009 (ip), vehicle: saline
[12] = dose: 100.0 mg/kg/injection, schedule: Q01DX009 (ip), vehicle: saline
[13] = dose: 200.0 mg/kg/injection, schedule: Q01DX009 (ip), vehicle: saline
[14] = dose: 60.0 mg/kg/injection, schedule: Q01DX005 (ip), vehicle: saline with Tween-80
[15] = dose: 100.0 mg/kg/injection, schedule: Q04DX002 (ip), vehicle: saline with Tween-80
[16] = dose: 200.0 mg/kg/injection, schedule: Q04DX002 (ip), vehicle: saline with Tween-80
[17] = dose: 25.0 mg/kg/injection, schedule: Q01DX005 (ip), vehicle: saline with Tween-80

Measured: T/C

COC(=O)C1=CO[C@@H](OC2OC(CO)C(O)C(O)C2O)[C@@H]2[C@H](C)[C@@H](O)[C@@H](O)[C@]12O (stereo not given in full)
inactive: dose: 25.0 mg/kg/injection, schedule: Q01DX005 (ip), vehicle: saline 115 % of control | [1] 100 % of control | [2] 106 % of control | [3] 106 % of control

Cc1cccc(Cl)c1NC(=O)CN(C)CCN1CCCC1
inactive: dose: 60.0 mg/kg/injection, schedule: Q01DX005 (ip), vehicle: saline 103 % of control | dose: 120.0 mg/kg/injection, schedule: Q01DX005 (ip), vehicle: saline 110 % of control

COc1ccc(-c2coc3cc(OC4OC(COC5OCC(O)C(O)C5O)C(O)C(O)C4O)cc(O)c3c2=O)cc1 (stereo not given)
inactive: [4] 103 % of control | [5] 98 % of control | [6] 102 % of control

CCOC(=O)CC(=O)OC(C)(C)C
inactive: [4] 97 % of control | [5] 106 % of control | [6] 104 % of control | [7] 100 % of control

N#CCSCC(N)C(=O)O (stereo not given)
inactive: [8] 103 % of control | [9] 105 % of control | [10] 105 % of control

CN1CCC2OC2C1=NC#N (stereo not given)
inactive: dose: 12.5 mg/kg/injection, schedule: Q01DX009 (ip), vehicle: saline 102 % of control | dose: 25.0 mg/kg/injection, schedule: Q01DX009 (ip), vehicle: saline 101 % of control | [11] 105 % of control | [12] 101 % of control | [13] 97 % of control

C/C(=N\O)C(O)c1ccccc1 (stereo not given)
inactive: [12] 88 % of control | [13] 93 % of control | dose: 400.0 mg/kg/injection, schedule: Q01DX009 (ip), vehicle: saline 100 % of control

Cn1c2ccccc2c(=O)c2c(O)cc3c(c21)N=CC(C)(C)O3
inactive: [14] 96 % of control | dose: 120.0 mg/kg/injection, schedule: Q01DX005 (ip), vehicle: saline with Tween-80 93 % of control | dose: 240.0 mg/kg/injection, schedule: Q01DX005 (ip), vehicle: saline with Tween-80 93 % of control

CN(C)CCN(C)CCN1C(=O)c2ccccc2C1=O
inactive: dose: 100.0 mg/kg/injection, schedule: Q04DX002 (ip), vehicle: saline 102 % of control | dose: 200.0 mg/kg/injection, schedule: Q04DX002 (ip), vehicle: saline 100 % of control | dose: 400.0 mg/kg/injection, schedule: Q04DX002 (ip), vehicle: saline 100 % of control

O=C(O)CNCCCCCCNCC(=O)O
inactive: [1] 98 % of control | [2] 103 % of control | [3] 106 % of control

COc1cc(Cc2nnc(Nc3ccccc3)[nH]c2=O)cc(OC)c1OC
inactive: dose: 100.0 mg/kg/injection, schedule: Q01DX001 (ip), vehicle: Klucel (hydroxypropylcellulose) (HPC) 98 % of control | dose: 200.0 mg/kg/injection, schedule: Q01DX001 (ip), vehicle: Klucel (hydroxypropylcellulose) (HPC) 94 % of control | dose: 400.0 mg/kg/injection, schedule: Q01DX001 (ip), vehicle: Klucel (hydroxypropylcellulose) (HPC) 98 % of control

O=C(NC(Cc1ccc(Br)cc1)C(=O)O)c1ccc(Cl)cc1 (stereo not given)
inactive: dose: 50.0 mg/kg/injection, schedule: Q01DX005 (ip), vehicle: Klucel (hydroxypropylcellulose) (HPC) 100 % of control | dose: 100.0 mg/kg/injection, schedule: Q01DX005 (ip), vehicle: Klucel (hydroxypropylcellulose) (HPC) 100 % of control | dose: 200.0 mg/kg/injection, schedule: Q01DX005 (ip), vehicle: Klucel (hydroxypropylcellulose) (HPC) 102 % of control

CC(=O)c1c(OCC(O)CN2CCCCC2)ccc2c(C)cc(=O)oc12 (stereo not given)
inactive: [15] 100 % of control | [16] 101 % of control

C=C1C(=O)O[C@@H]2/C=C(/C)[C@@H](OC(C)=O)C/C=C(\C)C(O)[C@@H](OC(=O)/C(C)=C\C)C12 (stereo not given in full)
inactive: dose: 25.0 mg/kg/injection, schedule: Q04DX002 (ip), vehicle: saline with Tween-80 105 % of control | dose: 50.0 mg/kg/injection, schedule: Q04DX002 (ip), vehicle: saline with Tween-80 105 % of control | [15] 104 % of control | [16] 97 % of control

O=C(CC(=O)C(F)(F)F)c1cccs1.O=C(CC(=O)C(F)(F)F)c1cccs1.O=C(CC(=O)C(F)(F)F)c1cccs1.[Tb]
inactive: [11] 86 % of control | [12] 86 % of control | [13] 89 % of control

CCOC(=O)N1C=CC(=C2C(=C3C=CN(C(=O)OCC)C=C3)C(=C3C=CN(C(=O)OCC)C=C3)C2=C2C=CN(C(=O)OCC)C=C2)C=C1
inactive: [17] 100 % of control | [8] 101 % of control and 102 % of control and 117 % of control | [9] 100 % of control and 105 % of control and 109 % of control | [10] 99 % of control

ClC(Cl)(Cl)C(=NNc1ccccc1)C(Cl)(Cl)Cl
inactive: dose: 15.0 mg/kg/injection, schedule: Q01DX005 (ip), vehicle: saline with Tween-80 104 % of control | dose: 30.0 mg/kg/injection, schedule: Q01DX005 (ip), vehicle: saline with Tween-80 104 % of control | [14] 105 % of control and 110 % of control

Nc1nc(/C=C(/O)c2ccccc2)c2ncn(C3OC(CO)C(O)C3O)c2n1 (stereo not given)
inactive: [5] 106 % of control | [6] 103 % of control | [7] 114 % of control

O=c1[nH]c(Br)nc2nc[nH]c12
inactive: [8] 93 % of control | [9] 94 % of control | [10] 92 % of control

CCNC(=O)OCc1c(-c2ccccc2)nc2n1CCS2
inactive: dose: 6.25 mg/kg/injection, schedule: Q01DX001 (ip), vehicle: Klucel (hydroxypropylcellulose) (HPC) 104 % of control | dose: 12.5 mg/kg/injection, schedule: Q01DX001 (ip), vehicle: Klucel (hydroxypropylcellulose) (HPC) 98 % of control and 115 % of control | dose: 25.0 mg/kg/injection, schedule: Q01DX001 (ip), vehicle: Klucel (hydroxypropylcellulose) (HPC) 114 % of control and 93 % of control | dose: 50.0 mg/kg/injection, schedule: Q01DX001 (ip), vehicle: Klucel (hydroxypropylcellulose) (HPC) 101 % of control and 106 % of control | dose: 75.0 mg/kg/injection, schedule: Q01DX001 (ip), vehicle: Klucel (hydroxypropylcellulose) (HPC) 108 % of control

COc1cc2c(c(OC)c1OC)-c1ccc(NCc3ccccc3)c(=O)cc1[C@@H](NC(C)=O)CC2
inactive: dose: 0.78 mg/kg/injection, schedule: Q01DX009 (ip), vehicle: Klucel (hydroxypropylcellulose) (HPC) 103 % of control and 104 % of control and 105 % of control | dose: 1.56 mg/kg/injection, schedule: Q01DX009 (ip), vehicle: Klucel (hydroxypropylcellulose) (HPC) 98 % of control and 101 % of control and 104 % of control | dose: 3.12 mg/kg/injection, schedule: Q01DX009 (ip), vehicle: Klucel (hydroxypropylcellulose) (HPC) 105 % of control and 106 % of control and 117 % of control | dose: 6.25 mg/kg/injection, schedule: Q01DX009 (ip), vehicle: Klucel (hydroxypropylcellulose) (HPC) 117 % of control | dose: 12.5 mg/kg/injection, schedule: Q01DX009 (ip), vehicle: Klucel (hydroxypropylcellulose) (HPC) 98 % of control and 117 % of control

C/C(N=NC(=S)N1CCSCC1)=C1\C=CC=CN1O
inactive: dose: 12.5 mg/kg/injection, schedule: Q01DX005 (ip), vehicle: saline with Tween-80 97 % of control | [17] 100 % of control | [8] 107 % of control and 97 % of control | [10] 102 % of control

c1ccc(OCCC[P+](c2ccccc2)(c2ccccc2)c2ccccc2)cc1
inactive: dose: 0.7 mg/kg/injection, schedule: Q01DX010 (ip), vehicle: carboxymethylcellulose (CMC) 120 % of control | dose: 1.5 mg/kg/injection, schedule: Q01DX010 (ip), vehicle: carboxymethylcellulose (CMC) 110 % of control | dose: 3.0 mg/kg/injection, schedule: Q01DX010 (ip), vehicle: carboxymethylcellulose (CMC) 120 % of control | dose: 4.1 mg/kg/injection, schedule: Q01DX009 (ip), vehicle: saline sonified 113 % of control | dose: 6.25 mg/kg/injection, schedule: Q01DX009 (ip), vehicle: saline sonified 118 % of control
